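Interpolation was linear, between the two tested concentrations surrounding the appropriate level; five concentrations were tested over 48 hours in 96-well plates. The concentration for 50% growth inhibition is given as GI50. TGI: total growth inhibition.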
How the values were obtained:
Assay in all cases: NCI-60 cell line screen, 48 h
HOP-62 NSCLC = tested on: HOP-62 NSCLC
OVCAR-5 ovarian = tested on: OVCAR-5 ovarian
SN12C renal = tested on: SN12C renal
MDA-MB-231 breast = tested on: MDA-MB-231 breast
U251 CNS = tested on: U251 CNS
CAKI-1 renal = tested on: CAKI-1 renal
SF-539 CNS = tested on: SF-539 CNS
SNB-19 CNS = tested on: SNB-19 CNS
MALME-3M melanoma = tested on: MALME-3M melanoma
SF-268 CNS = tested on: SF-268 CNS
OVCAR-3 ovarian = tested on: OVCAR-3 ovarian
NCI/ADR-RES ovarian = tested on: NCI/ADR-RES ovarian
SR leukemia = tested on: SR leukemia
DU-145 prostate = tested on: DU-145 prostate
SK-MEL-28 melanoma = tested on: SK-MEL-28 melanoma
SK-OV-3 ovarian = tested on: SK-OV-3 ovarian
OVCAR-8 ovarian = tested on: OVCAR-8 ovarian
SF-295 CNS = tested on: SF-295 CNS
A549 NSCLC = tested on: A549 NSCLC
HT29 colon = tested on: HT29 colon
UACC-257 melanoma = tested on: UACC-257 melanoma
TK-10 renal = tested on: TK-10 renal
NCI-H226 lung = tested on: NCI-H226 lung
HOP-92 NSCLC = tested on: HOP-92 NSCLC
HCC-2998 colon = tested on: HCC-2998 colon
OVCAR-4 ovarian = tested on: OVCAR-4 ovarian
RXF 393 renal = tested on: RXF 393 renal
UO-31 renal = tested on: UO-31 renal
SW-620 colon = tested on: SW-620 colon
CCRF-CEM leukemia = tested on: CCRF-CEM leukemia
SNB-75 CNS = tested on: SNB-75 CNS
SK-MEL-5 melanoma = tested on: SK-MEL-5 melanoma
IGROV1 ovarian = tested on: IGROV1 ovarian
SK-MEL-2 melanoma = tested on: SK-MEL-2 melanoma
ACHN renal = tested on: ACHN renal
A498 renal = tested on: A498 renal
KM12 colon = tested on: KM12 colon
MDA-MB-435 = tested on: MDA-MB-435
K-562 leukemia = tested on: K-562 leukemia
BT-549 breast = tested on: BT-549 breast
HS 578T breast = tested on: HS 578T breast
PC-3 prostate = tested on: PC-3 prostate
786-0 renal = tested on: 786-0 renal
EKVX NSCLC = tested on: EKVX NSCLC
RPMI-8226 leukemia = tested on: RPMI-8226 leukemia
HL-60(TB) leukemia = tested on: HL-60(TB) leukemia
NCI-H23 lung = tested on: NCI-H23 lung
NCI-H460 lung = tested on: NCI-H460 lung
MOLT-4 leukemia = tested on: MOLT-4 leukemia
HCT-15 colon = tested on: HCT-15 colon
UACC-62 melanoma = tested on: UACC-62 melanoma

With `CC(=O)Nc1ccc(NC(=O)Nc2cccc(-c3nc(-c4ccc(NC(=O)c5cccnc5)cc4Cl)no3)c2)cc1C(F)(F)F` the GI50 (HOP-62 NSCLC) was 0.739 µM, the TGI (HOP-62 NSCLC) was 2.7 µM and the GI50 (OVCAR-5 ovarian) was 0.987 µM. It also gave a TGI (OVCAR-5 ovarian) of 2.64 µM, a GI50 (SN12C renal) of 0.685 µM and a TGI (SN12C renal) of 2.12 µM. The GI50 (MDA-MB-231 breast) was 0.658 µM, the TGI (MDA-MB-231 breast) was 2.33 µM and the GI50 (U251 CNS) was 0.564 µM. It also gave a TGI (U251 CNS) of 2.26 µM, a GI50 (CAKI-1 renal) of 0.57 µM and a TGI (CAKI-1 renal) of 1.97 µM. For the same molecule, the GI50 (SF-539 CNS) was 0.341 µM, the TGI (SF-539 CNS) was 1.25 µM and the GI50 (SNB-19 CNS) was 0.477 µM. It also gave a TGI (SNB-19 CNS) of 2.15 µM, a GI50 (MALME-3M melanoma) of 0.479 µM and a TGI (MALME-3M melanoma) of 1.74 µM. It also gave a GI50 (SF-268 CNS) of 1.1 µM, a TGI (SF-268 CNS) of 3.38 µM and a GI50 (OVCAR-3 ovarian) of 0.382 µM. For the same molecule, the TGI (OVCAR-3 ovarian) was 1.42 µM, the GI50 (NCI/ADR-RES ovarian) was greater than 100 µM and the TGI (NCI/ADR-RES ovarian) was greater than 100 µM. For the same molecule, the GI50 (SR leukemia) was 0.296 µM, the TGI (SR leukemia) was 2.35 µM and the GI50 (DU-145 prostate) was 0.519 µM. For the same molecule, the TGI (DU-145 prostate) was 4.32 µM, the GI50 (SK-MEL-28 melanoma) was 0.89 µM and the TGI (SK-MEL-28 melanoma) was 2.2 µM. For the same molecule, the GI50 (SK-OV-3 ovarian) was 1.29 µM, the TGI (SK-OV-3 ovarian) was 3.03 µM and the GI50 (OVCAR-8 ovarian) was 0.712 µM. For the same molecule, the TGI (OVCAR-8 ovarian) was 3.25 µM, the GI50 (SF-295 CNS) was 0.454 µM and the TGI (SF-295 CNS) was 1.37 µM. For the same molecule, the GI50 (A549 NSCLC) was 1.07 µM, the TGI (A549 NSCLC) was 4.43 µM and the GI50 (HT29 colon) was 0.38 µM. The TGI (HT29 colon) was 1.69 µM, the GI50 (UACC-257 melanoma) was 1.13 µM and the TGI (UACC-257 melanoma) was 2.93 µM. The GI50 (TK-10 renal) was 1.99 µM, the TGI (TK-10 renal) was 4.67 µM and the GI50 (NCI-H226 lung) was 0.729 µM. The TGI (NCI-H226 lung) was 2.24 µM, the GI50 (HOP-92 NSCLC) was 1.28 µM and the TGI (HOP-92 NSCLC) was 3.01 µM. It also gave a GI50 (HCC-2998 colon) of 0.998 µM, a TGI (HCC-2998 colon) of 2.56 µM and a GI50 (OVCAR-4 ovarian) of 1.07 µM. For the same molecule, the TGI (OVCAR-4 ovarian) was 2.62 µM, the GI50 (RXF 393 renal) was 0.359 µM and the TGI (RXF 393 renal) was 1.13 µM. The GI50 (UO-31 renal) was 4.3 µM, the TGI (UO-31 renal) was greater than 35.7 µM and the GI50 (SW-620 colon) was 0.43 µM. The TGI (SW-620 colon) was 1.86 µM, the GI50 (CCRF-CEM leukemia) was 0.395 µM and the TGI (CCRF-CEM leukemia) was greater than 100 µM. The GI50 (SNB-75 CNS) was 0.217 µM, the TGI (SNB-75 CNS) was 0.814 µM and the GI50 (SK-MEL-5 melanoma) was 0.612 µM. The TGI (SK-MEL-5 melanoma) was 1.93 µM, the GI50 (IGROV1 ovarian) was 0.739 µM and the TGI (IGROV1 ovarian) was 2.34 µM. It also gave a GI50 (SK-MEL-2 melanoma) of 1.27 µM, a TGI (SK-MEL-2 melanoma) of 3.29 µM and a GI50 (ACHN renal) of 6.04 µM. For the same molecule, the TGI (ACHN renal) was greater than 100 µM, the GI50 (A498 renal) was 0.435 µM and the TGI (A498 renal) was 1.51 µM. The GI50 (KM12 colon) was 0.438 µM, the TGI (KM12 colon) was 1.79 µM and the GI50 (MDA-MB-435) was 0.174 µM. It also gave a TGI (MDA-MB-435) of 0.406 µM, a GI50 (K-562 leukemia) of 0.32 µM and a TGI (K-562 leukemia) of 1.76 µM. It also gave a GI50 (BT-549 breast) of 1.12 µM, a TGI (BT-549 breast) of 3.04 µM and a GI50 (HS 578T breast) of 0.503 µM. The TGI (HS 578T breast) was 2.99 µM, the GI50 (PC-3 prostate) was 0.477 µM and the TGI (PC-3 prostate) was 2.18 µM. For the same molecule, the GI50 (786-0 renal) was 1.12 µM, the TGI (786-0 renal) was 2.72 µM and the GI50 (EKVX NSCLC) was 1.4 µM. For the same molecule, the TGI (EKVX NSCLC) was 9.16 µM, the GI50 (RPMI-8226 leukemia) was 0.538 µM and the TGI (RPMI-8226 leukemia) was 2.9 µM. The GI50 (HL-60(TB) leukemia) was 0.307 µM, the TGI (HL-60(TB) leukemia) was 1.13 µM and the GI50 (NCI-H23 lung) was 0.601 µM. It also gave a TGI (NCI-H23 lung) of 2.19 µM, a GI50 (NCI-H460 lung) of 0.411 µM and a TGI (NCI-H460 lung) of 1.48 µM. For the same molecule, the GI50 (MOLT-4 leukemia) was 0.62 µM, the TGI (MOLT-4 leukemia) was 3 µM and the GI50 (HCT-15 colon) was 2.08 µM. The TGI (HCT-15 colon) was greater than 100 µM, the GI50 (UACC-62 melanoma) was 0.412 µM and the TGI (UACC-62 melanoma) was 1.63 µM.
